What was measured:
Test in all cases: relative viability (nuclei count vs DMSO), 5 days (fraction); higher = more cells survive
[1] = compound: CCN1C(=O)C2=CC(=C(N=C2N(C1=O)C3CC3)N)C(=O)N + N=C(N)NC(=N)NCCc1ccccc1 [Phenformin] (partner 250 µM)
How it was run: (§1)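 Lung cancer cell lines were seeded in 1536-well plates and dosed by pin tool the next day, with either a single drug or a fixed anchor-drug dose combined with five library-drug doses (not always all listed) spaced in √10 steps. Five days later, one step fixed the cells and stained their nuclei (final 0.05% Triton X-100, 1% formaldehyde, 1 ug/ml Hoechst), and nuclei were counted on 4× images. Relative viability is the nuclei count in treated wells divided by the count in vehicle wells, and each value is the median of duplicate plates.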

[2] = compound: CCN1C(=O)C2=CC(=C(N=C2N(C1=O)C3CC3)N)C(=O)N + C[C@@H](Oc1cc(-c2cnn(C3CCNCC3)c2)cnc1N)c1c(Cl)ccc(F)c1Cl [Crizotinib] (partner 1 µM)
How it was run: as §1

[3] = compound: CCN1C(=O)C2=CC(=C(N=C2N(C1=O)C3CC3)N)C(=O)N + C[C@]1(O)C[C@@H](c2nc(-c3ccc4ccc(-c5ccccc5)nc4c3)c3c(N)nccn32)C1 [Linsitinib] (partner 1 µM)
How it was run: as §1

[4] = compound: CCN1C(=O)C2=CC(=C(N=C2N(C1=O)C3CC3)N)C(=O)N + COc1cc2c(Oc3ccc(NC(=O)C4(C(=O)Nc5ccc(F)cc5)CC4)cc3F)ccnc2cc1OCCCN1CCOCC1 [Foretinib] (partner 0.25 µM)
How it was run: as §1

[5] = compound: CCN1C(=O)C2=CC(=C(N=C2N(C1=O)C3CC3)N)C(=O)N
How it was run: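 A plate was accepted only when its control CV was below 25% and the cells had doubled at least once. Viability is defined from nuclear counts as treated wells divided by vehicle wells, with the median taken across plates. That median covers lung cancer cell lines grown in 1536-well plates, dosed by pinning at five √10-spaced library-drug concentrations, and counted in MetaXpress from 4× Hoechst images after 5 days.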

| Cell Line | relative viability ([1]; first compound 0.253 µM) | relative viability ([1]; first compound 0.8 µM) | relative viability ([1]; first compound 2.53 µM) | relative viability ([1]; first compound 8 µM) | relative viability ([2]; first compound 0.253 µM) | relative viability ([2]; first compound 0.8 µM) | relative viability ([2]; first compound 2.53 µM) | relative viability ([2]; first compound 8 µM) | relative viability ([3]; first compound 0.253 µM) | relative viability ([3]; first compound 0.8 µM) | relative viability ([3]; first compound 2.53 µM) | relative viability ([3]; first compound 8 µM) | relative viability ([4]; first compound 0.253 µM) | relative viability ([4]; first compound 0.8 µM) | relative viability ([4]; first compound 2.53 µM) | relative viability ([4]; first compound 8 µM) | relative viability ([5]; 0.253 µM) | relative viability ([5]; 0.8 µM) | relative viability ([5]; 2.53 µM) | relative viability ([5]; 8 µM) |
| --- | --- | --- | --- | --- | --- | --- | --- | --- | --- | --- | --- | --- | --- | --- | --- | --- | --- | --- | --- | --- |
| NCI-H650 | 0.502 | 0.388 | 0.448 | 0.433 | 0.832 | 0.721 | 0.615 | 0.716 | 0.949 | 0.636 | 0.957 | 0.697 | 0.969 | 1.04 | 0.954 | 0.944 | 0.955 | 0.916 | 0.962 | 0.849 |
| NCI-H2009 | 0.481 | 0.485 | 0.453 | 0.453 | 1.05 | 1.03 | 0.99 | 1.05 | 1.24 | 1.15 | 1.11 | 1.1 | 1.2 | 1.18 | 1.2 | 1.12 | 1.02 | 1 | 0.946 | 0.923 |
| EPLC-272H | 0.322 | 0.32 | 0.357 | 0.32 | 0.997 | 0.998 | 0.906 | 0.988 | 1.18 | 1.28 | 1.37 | 1.36 | 0.84 | 0.662 | 0.613 | 0.686 | 0.891 | 0.863 | 0.999 | 1.09 |
| NCI-H520 | 0.582 | 0.643 | 0.59 | 0.508 | 0.698 | 0.64 | 0.645 | 1.29 | 0.938 | 0.951 | 0.961 | 1.11 | 0.544 | 0.709 | 0.827 | 0.899 | 0.985 | 1.02 | 0.972 | 0.904 |
| NCI-H2405 | 0.379 | 0.388 | 0.381 | 0.395 | 0.866 | 0.844 | 0.817 | 0.873 | 1.05 | 0.954 | 1.04 | 0.988 | 1.04 | 1.05 | 1.07 | 1.06 | 1.09 | 1.02 | 1.06 | 0.982 |
| NCI-H2085 | 0.737 | 0.666 | 0.752 | 0.684 | 0.861 | 0.985 | 0.84 | 1.01 | 0.969 | 0.754 | 0.799 | 0.863 | 0.992 | 0.874 | 0.834 | 0.947 | 1.01 | 0.99 | 0.941 | 0.966 |
| NCI-H322M | 0.822 | 0.736 | 0.75 | 0.868 | 0.814 | 0.872 | 0.887 | 0.943 | 0.89 | 0.9 | 0.865 | 0.914 | 0.953 | 0.958 | 0.988 | 1.1 | 0.959 | 0.929 | 0.984 | 0.996 |
| NCI-H1944 | 0.255 | 0.218 | 0.208 | 0.204 | 1.06 | 1.12 | 1.01 | 1.3 | 1.19 | 1.16 | 1.02 | 1.18 | 0.976 | 0.91 | 0.843 | 0.949 | 1.01 | 0.919 | 0.954 | 0.827 |
| LC-2-ad | 0.521 | 0.556 | 0.505 | 0.587 | 0.217 | 0.433 | 0.437 | 0.537 | 0.811 | 0.805 | 0.782 | 0.899 | 0.926 | 0.855 | 0.986 | 0.94 | 0.915 | 0.937 | 1 | 0.977 |
| NCI-H358 | 0.355 | 0.351 | 0.388 | 0.298 | 0.642 | 0.551 | 0.525 | 0.774 | 0.718 | 0.852 | 0.682 | 0.808 | 0.704 | 0.762 | 0.771 | 0.676 | 1.05 | 0.913 | 0.924 | 0.954 |
| NCI-H2170 | 0.42 | 0.444 | 0.418 | 0.445 | 1.15 | 1.19 | 1.23 | 1.28 | – | – | – | – | 1.02 | 1 | 0.954 | 0.989 | 0.983 | 0.928 | 1.02 | 0.925 |
| A-427 | 0.376 | 0.307 | 0.376 | 0.343 | 0.986 | 1.08 | 0.774 | 1.06 | 1.24 | 1.11 | 1.04 | 1.1 | 1.13 | 1.13 | 1.08 | 1.21 | 1.02 | 0.991 | 1.03 | 1.03 |
| NCI-H1666 | – | 0.562 | 0.58 | 0.558 | 1.16 | 0.998 | 0.883 | 1 | 0.805 | 0.766 | 0.792 | 0.779 | – | 0.857 | 0.948 | 1.04 | 0.93 | 0.986 | 0.959 | 0.938 |
| LOU-NH91 | 0.466 | 0.645 | 0.822 | 0.694 | 0.705 | 0.718 | 0.767 | 0.707 | 1.04 | 0.951 | 0.96 | 0.879 | 0.847 | 0.855 | 0.978 | 0.916 | 0.838 | 0.921 | 0.996 | 0.944 |
| ABC-1 | 0.24 | 0.22 | 0.274 | 0.25 | 1.21 | 1.04 | 1.18 | 1.32 | 0.825 | 0.989 | 0.72 | 0.876 | 1.19 | 0.873 | 0.908 | 1.05 | 0.986 | 0.686 | 1 | 0.841 |
| NCI-H1651 | 0.297 | 0.326 | 0.328 | 0.313 | 0.892 | 0.884 | 0.858 | 0.868 | 0.953 | 1.1 | 0.902 | 1.04 | 0.921 | 0.838 | 0.656 | 0.772 | 0.929 | 0.976 | 0.965 | 0.948 |
